Several values for one entry are separate records, joined by “and”; a condition that tells them apart may be missing. Equal values may be shown once.
Test system: rat focal cerebral ischemia-reperfusion model (Middle cerebral artery occlusion, MCAO)
Assay: Protective effect on focal cerebral ischemia reperfusion (MCAO) in rats: cerebral infarction area by TTC staining
Type: in vivo, Sprague Dawley (SD) rat
Conditions: for Cerebral infarction area in rats (%): 2.0 h ischemia then reperfusion, mean ± standard error; for Effect on reducing the cerebral infarct area in model rats compared with the model group (significance): P<0.05 significant; for Compared with the model group, the reduced proportion of cerebral infarction area in the compound group: versus model group of the same test
Protocol: Sprague Dawley (SD) rat, male, SPF grade, weight 250-280 g
• Compounds 04007, 04015, 04041, 04047, 04050 and 04089 • Commercially available edaravone injection, products of Nanjing Simcere dongyuan pharmaceutical Co., Ltd, specifications 10 mg/mL 1.3 Experimental Method 1.3.1 Preparation of Focal Cerebral Ischemia-Reperfusion Model
The rat focal cerebral ischemia-reperfusion model (Middle cerebral artery occlusion, MCAO) was prepared by internal carotid artery suture method. Rats were injected intraperitoneally with 7% chloral hydrate (6.0 mL/kg), and the depth of anesthesia was appropriate for severe stimulation of animals with slight reaction. The anesthetized rats were tightened with rubber bands on the limbs (the hind limbs were fixed above the knee joint, and the forelimbs were fixed above the wrist joint) and the head, and the animals were fixed on the operating table in the supine position, and the animal shaver was used from the head end to the chest to shave hair, and the skin was disinfected with alcohol. The neck was cut in the middle and the subcutaneous tissue was blunt separated. […] The arterial shell was opened, the right carotid bifurcation was exposed, and the right common carotid artery, external carotid artery, internal carotid artery were separated, the vagus nerve was gently peeled off, the external carotid artery was ligated and cut off. The end of the common carotid artery proximity to the heart was clamped, and an incision was made from the distal end of the ligature line of the external carotid artery, suture was inserted and entered into the internal carotid artery through the bifurcation of the common carotid artery, and then slowly inserted until there was slight resistance (about 20 mm from the bifurcation), all blood supply of the middle cerebral artery was blocked. The suture was slightly fixed with the silk under the incision of the external carotid artery, the clamping silk at the end of the common carotid artery proximity to the heart was loosen, the wound surface was covered with gauze soaked with disinfected normal saline, and the rats were kept warm by placing on the heat preservation mat. After right cerebral ischemia for 2.0 h, the suture was gently pulled out, blood supply was restored for reperfusion, the external carotid artery was ligated with the silk fixing the suture, the skin was sutured, and disinfected.
The experimental animals were divided into model group, edaravone group (6 mg/kg) and compound to be tested group (5 mg/kg ration of compound to be tested: 5% DMAC+5% Solutol HS 15+90% Saline were used to prepare a solution with a concentration of 1 mg/mL.
After the ischemia model was prepared, the animals were assigned to each group in a single blind with equal probability. The animals were administered intravenously once immediately after reperfusion, and the animals in the model group were given the same volume of normal saline. The animals were sacrificed 24 hours after ischemia, the brain was taken, stained and photographed to determine the area of cerebral infarction.
The degree of cerebral infarction was determined by TTC, staining. After the evaluation of the symptoms of neurological defects in animals was completed, the animals were killed with CO2, the brain was taken by decapitation, the olfactory bulb, cerebellum and low brainstem were removed, blood stains on the surface of the brain were washed with normal saline, residual water stains on the surface were sucked out, and placed at −20° C. for 20 min. Immediately after taking out, the coronal section was made vertically downward at the intersection plane of the line of sight, and cut a slice every 2 mm backwards, the brain slices were incubated in 1% TTC dye solution (37° C. for 20 min). The normal brain tissue was dyed crimson, while the ischemic brain tissue was pale. […]

[1] = compound 5 mg/kg intravenously once immediately after reperfusion, measured 24 hours after ischemia
[2] = compound 5 mg/kg versus edaravone 6 mg/kg

Compound: CCOC(=O)c1ccc(Cn2c(=S)oc3c(Cl)cc(Cl)cc32)cc1O [Compound 04041]
- Cerebral infarction area in rats (%) [1]: 30.37 ± 4.36%
- Effect on reducing the cerebral infarct area in model rats compared with the model group (significance) (compound 5 mg/kg i.v.): significantly reduce the cerebral infarct area
- Compared with the model group, the reduced proportion of cerebral infarction area in the compound group (compound 5 mg/kg i.v.): 37%
- Efficacy compared with the positive control drug edaravone group [2]: equivalent or better efficacy

Compound: CC(C)OC(=O)c1ccc(N2COc3c(Cl)cc(Cl)cc3C2)cn1 [Compound 04047]
- Cerebral infarction area in rats (%) [1]: 35.47 ± 5.34%
- Effect on reducing the cerebral infarct area in model rats compared with the model group (significance) (compound 5 mg/kg i.v.): no significant effect on reducing the cerebral infarct area
- Compared with the model group, the reduced proportion of cerebral infarction area in the compound group (compound 5 mg/kg i.v.): 15%

Compound: CCOCCOC(=O)c1ccc(N2Cc3cc(Cl)cc(Cl)c3OC2=S)cn1 [Compound 04089]
- Cerebral infarction area in rats (%) (compound 0.5 mg/kg intravenously once immediately after reperfusion, measured 24 hours after ischemia): 27.80 ± 2.22%
- Effect on reducing the cerebral infarct area in model rats compared with the model group (significance) (compound 0.5 mg/kg i.v.): significantly reduce the cerebral infarct area
- Compared with the model group, the reduced proportion of cerebral infarction area in the compound group (compound 0.5 mg/kg i.v.): 34%
- Efficacy compared with the positive control drug edaravone group (compound 0.5 mg/kg versus edaravone 6 mg/kg): equivalent or better efficacy

Compound: CC1=NN(c2ccccc2)C(=O)C1 [edaravone, reference compound]
- Cerebral infarction area of rats in edaravone group in the same test(%) (edaravone 6 mg/kg intravenously once immediately after reperfusion, measured 24 hours after ischemia, one value per test run): 32.08% and 27.44% and 28.47% and 32.45%

Compound: CN1CC(OC(=O)c2ccc(N3Cc4cc(Cl)cc(Cl)c4OC3=S)cn2)C1 [Compound 04007]
- Cerebral infarction area in rats (%) [1]: 35.41 ± 3.71%
- Effect on reducing the cerebral infarct area in model rats compared with the model group (significance) (compound 5 mg/kg i.v.): significantly reduce the cerebral infarct area
- Compared with the model group, the reduced proportion of cerebral infarction area in the compound group (compound 5 mg/kg i.v.): 26%
- Efficacy compared with the positive control drug edaravone group [2]: equivalent or better efficacy

Compound: C#CCCOC(=O)c1ccc(N2Cc3cc(Cl)cc(Cl)c3OC2=S)cn1 [Compound 04050]
- Cerebral infarction area in rats (%) [1]: 30.97 ± 4.33%
- Effect on reducing the cerebral infarct area in model rats compared with the model group (significance) (compound 5 mg/kg i.v.): significantly reduce the cerebral infarct area
- Compared with the model group, the reduced proportion of cerebral infarction area in the compound group (compound 5 mg/kg i.v.): 26%
- Efficacy compared with the positive control drug edaravone group [2]: equivalent or better efficacy
